Measured values reported in patent US12570648B2, “6,7-dihydro-5H-pyrido[2,3-c]pyridazine derivatives and related compounds as Bcl-xL protein inhibitors and pro-apoptotic agents for treating cancer” (LES LABORATOIRES SERVIER, priority 2019, dated 2026).

Legend:
[1] = molecular target: His-His-(EK)-hsBCLXL(2-197)[N197C] (Homo sapiens (Human), UniProt Q07817, N197C); assay: Fluorescence quenching assay; type: binding; details: 1 nM Cy5-labelled protein, 400 nM PUMA peptide, 2 hours at 23° C.; KI determined from IC50
Chain of His-His-(EK)-hsBCLXL(2-197)[N197C] (Q07817 2-197 N197C): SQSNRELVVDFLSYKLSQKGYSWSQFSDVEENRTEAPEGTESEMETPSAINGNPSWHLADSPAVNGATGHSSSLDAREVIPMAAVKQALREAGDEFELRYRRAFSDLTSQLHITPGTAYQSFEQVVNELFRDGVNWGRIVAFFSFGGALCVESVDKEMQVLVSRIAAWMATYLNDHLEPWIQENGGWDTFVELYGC
Excerpt: Fluorescence quenching assay measures the change in fluorescence intensity of C-terminally Cy5-labelled BCL-xL protein, His-His-(EK)-hsBCLXL(2-197)[N197C] (UniProtKB®
which is linked in C-terminal region to the amino acid X which corresponds to a cysteine labelled on the sulfur with Sulfo-Cyanine5 from Lumiprobe GmbH catalogue number 13380, upon binding of a C-terminally labelled peptide derived from PUMA (UniProtKB® primary accession number Q9BXH1) having an aminoacid sequence (SEQ ID:04): [[…]] which is linked in C-terminal region to the amino acid X′ where X′ is cysteine labelled on the sulfur with TQ5WS from AAT Bioquest catalogue number 2079.
The addition of a compound which binds competitively to the same site as the peptide will result in an increase in the fluorescence intensity of the protein due to displacement of the fluorescence quencher.
An 11-point serial dilution of each compound was prepared in DMSO, the final buffer conditions were 10 mM 4-(2-hydroxyethyl)-1-piperazineethanesulfonic acid [HEPES], 150 mM NaCl, 0.05% Tween 20, pH 7.4 and 5% DMSO. The final protein concentration in the assay was 1 nM with the peptide present at 400 nM. The experiments were incubated for 2 hours at 23° C. before fluorescence intensity was measured on a Biotek SynergyNeo plate reader (Excitation 620 nm, emission 680 nm). […] The K1 values were determined from the IC50 values according to Cer et al, Nucleic Acids Res, 2009, Jul. 1; 37 (WebServer issue): W441-W445.

MOLT-4 cells = assay: MOLT-4 cell viability using MTT assay; type: cell-based; details: 48 h exposure
Method: MTT colorimetric assay is based on the mitochondrial reduction of tetrazolium salt by living cells.
Cells were cultured at 37° C. in a humidified atmosphere containing 5% CO2. […] At the end of incubation time, 15 μL of MTT solution (5 mg/ml) were added per well and the cells were incubated for another 4 h. […] IC50s were calculated using standard four-parametric curve fitting.

Compound | Ki [1] [nM] | IC50 (MOLT-4 cells; Homo sapiens, MOLT-4, 48 h) [nM] | IC50 (MOLT-4 cells) [nM]
CNCC#Cc1ccc(OCCCc2sc(N3CCCc4c3nnc(Nc3nc5ccccc5s3)c4C)nc2C(=O)O)cc1 [Example 80, 2-[3-(1,3-Benzothiazol-2-ylamino)-4-methyl-6,7-dihydro-5H-pyrido[2,3-c]pyridazin-8-yl]-5-[3-[4-[3-(methylamino)prop-1-ynyl]phenoxy]propyl]thiazole-4-carboxylic acid] | 0.0065 | 0.575 | –
Cc1c(Nc2nc3ccccc3s2)nnc2c1CCCN2c1nc(C(=O)O)c(CCCOc2ccc(C#CC(C)(C)N3CCCC3)cc2F)s1 [Example 81, 2-[3-(1,3-Benzothiazol-2-ylamino)-4-methyl-6,7-dihydro-5H-pyrido[2,3-c]pyridazin-8-yl]-5-[3-[2-fluoro-4-(3-methyl-3-pyrrolidin-1-yl-but-1-ynyl)phenoxy]propyl]thiazole-4-carboxylic acid] | 0.015 | 0.175 | –
Cc1c(Nc2nc3cccc(F)c3s2)nnc2c1CCCN2c1nc(C(=O)O)c(CCCOc2ccc(C#CCN(C)C)cc2F)s1 [Example 82, 5-[3-[4-[3-(Dimethylamino)prop-1-ynyl]-2-fluoro-phenoxy]propyl]-2-[3-[(7-fluoro-1,3-benzothiazol-2-yl)amino]-4-methyl-6,7-dihydro-5H-pyrido[2,3-c]pyridazin-8-yl]thiazole-4-carboxylic acid] | 0.023 | 1.21 | –
Cc1c(Nc2nc3ccccc3s2)nnc2c1CCCN2c1nc(C(=O)O)c(CCCOc2ccc(C#CC(C)(C)N(C)C)cc2F)s1 [Example 83, 2-[3-(1,3-Benzothiazol-2-ylamino)-4-methyl-6,7-dihydro-5H-pyrido[2,3-c]pyridazin-8-yl]-5-[3-[4-[3-(dimethylamino)-3-methyl-but-1-ynyl]-2-fluoro-phenoxy]propyl]thiazole-4-carboxylic acid] | 0.026 | 0.573 | –
Cc1c(Nc2nc3ccccc3s2)nnc2c1CCCN2c1nc(C(=O)O)c(CCCOc2ccc(C#CC3(N(C)C)CCCCC3)cc2F)s1 [Example 84, 2-[3-(1,3-Benzothiazol-2-ylamino)-4-methyl-6,7-dihydro-5H-pyrido[2,3-c]pyridazin-8-yl]-5-[3-[4-[2-[1-(dimethylamino)cyclohexyl]ethynyl]-2-fluoro-phenoxy]propyl]thiazole-4-carboxylic acid] | 0.053 | 1.83 | –
CCN(CC)CC#Cc1ccc(OCCCc2sc(N3CCCc4c3nnc(Nc3nc5ccccc5s3)c4C)nc2C(=O)O)c(F)c1 [Example 85, 2-[3-(1,3-Benzothiazol-2-ylamino)-4-methyl-6,7-dihydro-5H-pyrido[2,3-c]pyridazin-8-yl]-5-[3-[4-[3-(diethylamino)prop-1-ynyl]-2-fluoro-phenoxy]propyl]thiazole-4-carboxylic acid] | 0.044 | 0.416 | –
Cc1c(Nc2nc3ccccc3s2)nnc2c1CCCN2c1nc(C(=O)O)c(CCCOc2ccc(C#CCN(C(C)C)C(C)C)cc2F)s1 [Example 86, 2-[3-(1,3-Benzothiazol-2-ylamino)-4-methyl-6,7-dihydro-5H-pyrido[2,3-c]pyridazin-8-yl]-5-[3-[4-[3-(diisopropylamino)prop-1-ynyl]-2-fluoro-phenoxy]propyl]thiazole-4-carboxylic acid] | 0.019 | 1.5 | –
CCN(C)CC#Cc1ccc(OCCCc2sc(N3CCCc4c3nnc(Nc3nc5ccccc5s3)c4C)nc2C(=O)O)c(F)c1 [Example 88, 2-[3-(1,3-Benzothiazol-2-ylamino)-4-methyl-6,7-dihydro-5H-pyrido[2,3-c]pyridazin-8-yl]-5-[3-[4-[3-[ethyl(methyl)amino]prop-1-ynyl]-2-fluoro-phenoxy]propyl]thiazole-4-carboxylic acid] | 0.01 | 0.181 | –
Cc1c(Nc2nc3ccccc3s2)nnc2c1CCCN2c1nc(C(=O)O)c(CCCOc2ccc(C#CCN3C[C@@H](C)N[C@@H](C)C3)cc2F)s1 [Example 89, 2-[3-(1,3-Benzothiazol-2-ylamino)-4-methyl-6,7-dihydro-5H-pyrido[2,3-c]pyridazin-8-yl]-5-[3-[4-[3-[(3R,5S)-3,5-dimethylpiperazin-1-yl]prop-1-ynyl]-2-fluoro-phenoxy]propyl]thiazole-4-carboxylic acid] | 0.0028 | 0.57 | –
Cc1c(Nc2nc3ccccc3s2)nnc2c1CCCN2c1nc(C(=O)O)c(CCCOc2ccc(C34CC(CN(C)C)(C3)C4)cc2F)s1 [Example 90, 2-[3-(1,3-Benzothiazol-2-ylamino)-4-methyl-6,7-dihydro-5H-pyrido[2,3-c]pyridazin-8-yl]-5-[3-[4-[1-[(dimethylamino)methyl]-3-bicyclo[1.1.1]pentanyl]-2-fluoro-phenoxy]propyl]thiazole-4-carboxylic acid] | 0.0022 | 0.46 | –
CNC(C)(C)C#Cc1ccc(OCCCc2sc(N3CCCc4c3nnc(Nc3nc5ccccc5s3)c4C)nc2C(=O)O)c(F)c1 [Example 91, 2-[3-(1,3-Benzothiazol-2-ylamino)-4-methyl-6,7-dihydro-5H-pyrido[2,3-c]pyridazin-8-yl]-5-[3-[2-fluoro-4-[3-methyl-3-(methylamino)but-1-ynyl]phenoxy]propyl]thiazole-4-carboxylic acid] | 0.0057 | 0.359 | –
Cc1c(Nc2nc3ccccc3s2)nnc2c1CCCN2c1ccc(-c2cnn(CC34CC5(C)CC(C)(C3)CC(OCCNCC[C@@H](O)CO)(C5)C4)c2C)c(C(=O)O)n1 [Example 93, 6-{3-[(1,3-benzothiazol-2-yl)amino]-4-methyl-6,7-dihydropyrido[2,3-c]pyridazin-8(5H)-yl}-3-(1-{[3-(2-{[(3R)-3,4-dihydroxybutyl]amino}ethoxy)-5,7-dimethyladamantan-1-yl]methyl}-5-methyl-1H-pyrazol-4-yl)pyridine-2-carboxylic acid] | 0.0024 | – | 14.2
CNCCOC12CC3(C)CC(C)(CC(Cn4ncc(-c5ccc(N6CCCc7c6nnc(Nc6nc8ccccc8s6)c7C)nc5C(=O)O)c4C)(C3)C1)C2 [Example 94, 6-{3-[(1,3-benzothiazol-2-yl)amino]-4-methyl-6,7-dihydropyrido[2,3-c]pyridazin-8(5H)-yl}-3-[1-({3,5-dimethyl-7-[2-(methylamino)ethoxy]adamantan-1-yl}methyl)-5-methyl-1H-pyrazol-4-yl]pyridine-2-carboxylic acid] | 0.0015 | 0.616 | –
Cc1c(Nc2nc3ccccc3s2)nnc2c1CCCN2c1ccc(-c2cnn(CC34CC5(C)CC(C)(C3)CC(OCCN(C)C)(C5)C4)c2C)c(C(=O)O)n1 [Example 95, 6-{3-[(1,3-benzothiazol-2-yl)amino]-4-methyl-6,7-dihydropyrido[2,3-c]pyridazin-8(5H)-yl}-3-[1-({3-[2-(dimethylamino)ethoxy]-5,7-dimethyladamantan-1-yl}methyl)-5-methyl-1H-pyrazol-4-yl]pyridine-2-carboxylic acid] | 0.0056 | 0.205 | –
Cc1c(Nc2nc3ccccc3s2)nnc2c1CCCN2c1ccc(-c2cnn(CC34CC5(C)CC(C)(C3)CC(OCCNCCS(=O)(=O)O)(C5)C4)c2C)c(C(=O)O)n1 [Example 96, 6-{3-[(1,3-benzothiazol-2-yl)amino]-4-methyl-6,7-dihydropyrido[2,3-c]pyridazin-8(5H)-yl}-3-{1-[(3,5-dimethyl-7-{2-[(2-sulfoethyl)amino]ethoxy}adamantan-1-yl)methyl]-5-methyl-1H-pyrazol-4-yl}pyridine-2-carboxylic acid] | 0.0022 | 8.27 | –
CCNC(C)(C)C#Cc1ccc(OCCCc2sc(N3CCCc4c3nnc(Nc3nc5ccccc5s3)c4C)nc2C(=O)O)c(F)c1 [Example 102, 2-{3-[(1,3-benzothiazol-2-yl)amino]-4-methyl-6,7-dihydropyrido[2,3-c]pyridazin-8(5H)-yl}-5-(3-{4-[3-(ethylamino)-3-methylbut-1-yn-1-yl]-2-fluorophenoxy}propyl)-1,3-thiazole-4-carboxylic acid] | 0.0045 | 0.268 | –
Cc1c(Nc2nc3ccccc3s2)nnc2c1CCCN2c1nc(C(=O)O)c(CCCOc2ccc(C#CCN(CC[C@H](O)CO)CC[C@H](O)CO)cc2F)s1 [Example 125, 2-{3-[(1,3-benzothiazol-2-yl)amino]-4-methyl-6,7-dihydro-5H-pyrido[2,3-c]pyridazin-8-yl}-5-{3-[4-(3-{bis[(3S)-3,4-dihydroxybutyl]amino}prop-1-yn-1-yl)-2-fluorophenoxy]propyl}-1,3-thiazole-4-carboxylic acid] | 0.0067 | 9.53 | –
COC(=O)c1nc(N2CCCc3c2nnc(Nc2nc4ccccc4s2)c3C)sc1CCCOc1ccc(C#CCN)cc1F [Example 126, methyl 5-[3-[4-(3-aminoprop-1-ynyl)-2-fluoro-phenoxy]propyl]-2-[3-(1,3-benzothiazol-2-ylamino)-4-methyl-6,7-dihydro-5H-pyrido[2,3-c]pyridazin-8-yl]thiazole-4-carboxylate] | 0.067 | 53.3 | –
